This experiment concerns the target T1, RORc ligand binding domain (Homo sapiens, UniProt P51449).
T1 sequence (P51449 269-508 limits assumed): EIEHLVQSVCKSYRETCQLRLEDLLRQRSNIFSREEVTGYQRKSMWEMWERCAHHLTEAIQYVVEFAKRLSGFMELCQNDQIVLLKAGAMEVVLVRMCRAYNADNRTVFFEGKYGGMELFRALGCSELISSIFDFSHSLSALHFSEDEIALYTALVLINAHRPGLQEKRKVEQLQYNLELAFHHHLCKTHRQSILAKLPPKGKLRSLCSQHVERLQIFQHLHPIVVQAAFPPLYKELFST
Description: In vitro RORc ligand binding assay (25-[3H]hydroxycholesterol displacement).
Molecule `C[C@H]1CC[C@H](c2ccccc2)S(=O)(=O)N1Cc1cc(F)c([C@]2(NCC3(C)COC3)C[C@](C)(O)C2)cc1F` (racemic) [Example 187, 3-[2,5-difluoro-4-[[rac-(3S,6R)-3-methyl-1,1-dioxo-6-phenyl-thiazinan-2-yl]methyl]phenyl]-1-methyl-3-[(3-methyloxetan-3-yl)methylamino]cyclobutanol] gave an IC50 of 10 nM.
For `Cc1cc(NC(=O)C2(c3ccc(CN4[C@@H](C)CC[C@H](c5ccccc5)S4(=O)=O)c(F)c3)CCOCC2)n(C)n1` (stereo in doubt) [Example 14, N-(2,5-dimethylpyrazol-3-yl)-4-[3-fluoro-4-[[(3S,6R)-3-methyl-1,1-dioxo-6-phenyl-thiazinan-2-yl]methyl]phenyl]tetrahydropyran-4-carboxamide] the value was 63.6 nM.
The molecule `C[C@H]1CC[C@H](c2ccccc2)S(=O)(=O)N1Cc1cc(F)c(C2(NC(=O)C3CCOC3)COC2)cc1F` (stereo in doubt) [Example 129, N-[3-[2,5-difluoro-4-[[(3S,6R)-3-methyl-1,1-dioxo-6-phenyl-thiazinan-2-yl]methyl]phenyl]oxetan-3-yl]tetrahydrofuran-3-carboxamide] displayed an IC50 of 32.3 nM.
Turning to `Cc1n[nH]cc1C(=O)NC1(c2cc(F)c(CN3[C@@H](C)CC[C@H](c4ccccc4)S3(=O)=O)cc2F)COC1` (stereo in doubt) [Example 130, N-[3-[2,5-difluoro-4-[[(3S,6R)-3-methyl-1,1-dioxo-6-phenyl-thiazinan-2-yl]methyl]phenyl]oxetan-3-yl]-3-methyl-1H-pyrazole-4-carboxamide], the IC50 was determined as 126 nM.
Next, `C[C@H]1CC[C@H](c2ccccc2)S(=O)(=O)N1Cc1cc(F)c(C2(NC(=O)c3cnn(C)c3)COC2)cc1F` (stereo in doubt) [Example 131, N-[3-[2,5-difluoro-4-[[(3S,6R)-3-methyl-1,1-dioxo-6-phenyl-thiazinan-2-yl]methyl]phenyl]oxetan-3-yl]-1-methyl-pyrazole-4-carboxamide]: 208 nM; `C[C@H]1CC[C@H](c2ccccc2)S(=O)(=O)N1Cc1cc(F)c(C2(NC(=O)c3ncc[nH]3)COC2)cc1F` (stereo in doubt) [Example 133, N-[3-[2,5-difluoro-4-[[(3S,6R)-3-methyl-1,1-dioxo-6-phenyl-thiazinan-2-yl]methyl]phenyl]oxetan-3-yl]-1H-imidazole-2-carboxamide]: 133 nM; `C[C@H]1CC[C@H](c2ccccc2)S(=O)(=O)N1Cc1cc(F)c(C2(NC(=O)c3c[nH]cn3)COC2)cc1F` (stereo in doubt) [Example 134, N-[3-[2,5-difluoro-4-[[(3S,6R)-3-methyl-1,1-dioxo-6-phenyl-thiazinan-2-yl]methyl]phenyl]oxetan-3-yl]-1H-imidazole-4-carboxamide]: 50.7 nM.
`C[C@H]1CC[C@H](c2ccccc2)S(=O)(=O)N1Cc1ccc(C2(C(=O)NC3COC3)CCOCC2)cc1F` [Example 1] came in with a half-inhibitory concentration (IC50) of 110 nM.
Next, `Cc1nocc1CNC(=O)C1(c2ccc(CN3[C@@H](C)CC[C@H](c4ccccc4)S3(=O)=O)c(F)c2)CCOCC1` [Example 2]: 63.8 nM; `C[C@H]1CC[C@H](c2ccccc2)S(=O)(=O)N1Cc1ccc(C2(C(=O)NCc3ccno3)CCOCC2)cc1F` [Example 4]: 75.7 nM; `C[C@H]1CC[C@H](c2ccccc2)S(=O)(=O)N1Cc1ccc(C2(C(=O)NCCN3CCC(O)CC3)CCOCC2)cc1F` [Example 5]: 1860 nM.
`C[C@H]1CC[C@H](c2ccccc2)S(=O)(=O)N1Cc1ccc(C2(C(=O)Nc3ncnn3C)CCOCC2)cc1F` [Example 7] displayed a 50% inhibitory concentration (IC50) of 299 nM.
`C[C@H]1CC[C@H](c2ccccc2)S(=O)(=O)N1Cc1ccc(C2(C(=O)NC3CCOC3)CCOCC2)cc1F` (stereo partly drawn) [Example 8, 4-[3-fluoro-4-[[(3S,6R)-3-methyl-1,1-dioxo-6-phenyl-thiazinan-2-yl]methyl]phenyl]-N-tetrahydrofuran-3-yl-tetrahydropyran-4-carboxamide] displayed an IC50 of 101 nM.
For `C[C@H]1CC[C@H](c2ccccc2)S(=O)(=O)N1Cc1ccc(C2(C(=O)NC3(C)COC3)CCOCC2)cc1F` [Example 9, 4-[3-fluoro-4-[[(3S,6R)-3-methyl-1,1-dioxo-6-phenyl-thiazinan-2-yl]methyl]phenyl]-N-(3-methyloxetan-3-yl)tetrahydropyran-4-carboxamide] the value was 144 nM; for `C[C@H]1CC[C@H](c2ccccc2)S(=O)(=O)N1Cc1ccc(C2(C(=O)NCc3cnccn3)CCOCC2)cc1F` [Example 10], 173 nM.
Regarding `C[C@H]1CC[C@H](c2ccccc2)S(=O)(=O)N1Cc1ccc(C2(C(=O)NCC3CCOC3)CCOCC2)cc1F` (stereo partly shown) [Example 11], the half-maximal inhibitory concentration (IC50) was 161 nM.
Next, `CCn1nccc1NC(=O)C1(c2ccc(CN3[C@@H](C)CC[C@H](c4ccccc4)S3(=O)=O)c(F)c2)CCOCC1` [Example 13]: 63.2 nM; `CNC(=O)c1nc(CNC(=O)C2(c3ccc(CN4[C@@H](C)CC[C@H](c5ccccc5)S4(=O)=O)c(F)c3)CCOCC2)no1` [Example 15, 3-[[[4-[3-fluoro-4-[[(3S,6R)-3-methyl-1,1-dioxo-6-phenyl-thiazinan-2-yl]methyl]phenyl]tetrahydropyran-4-carbonyl]amino]methyl]-N-methyl-1,2,4-oxadiazole-5-carboxamide]: 9.4 nM; `C[C@H]1CC[C@H](c2ccccc2)S(=O)(=O)N1Cc1ccc(C2(C(=O)NCc3cn[nH]c3)CCOCC2)cc1F` [Example 17, 4-[3-fluoro-4-[[(3S,6R)-3-methyl-1,1-dioxo-6-phenyl-thiazinan-2-yl]methyl]phenyl]-N-(1H-pyrazol-4-ylmethyl)tetrahydropyran-4-carboxamide]: 32.5 nM.
Next, `Cc1cc(N)n(C(=O)C2(c3ccc(CN4[C@@H](C)CC[C@H](c5ccccc5)S4(=O)=O)c(F)c3)CCOCC2)n1` [Example 19]: 12.3 nM; `Cc1cc(N)nn1C(=O)C1(c2ccc(CN3[C@@H](C)CC[C@H](c4ccccc4)S3(=O)=O)c(F)c2)CCOCC1` [Example 21, (3-amino-5-methyl-pyrazol-1-yl)-[4-[3-fluoro-4-[[(3S,6R)-3-methyl-1,1-dioxo-6-phenyl-thiazinan-2-yl]methyl]phenyl]tetrahydropyran-4-yl]methanone]: 1.9 nM.
Next, `C[C@H]1CC[C@H](c2ccccc2)S(=O)(=O)N1Cc1ccc(C2(c3nc(C4CC4)no3)CCOCC2)cc1F` [Example 23]: 14.3 nM; `C[C@H]1CC[C@H](c2ccccc2)S(=O)(=O)N1Cc1ccc(C2(CN3CCOCC3)CCOCC2)cc1F` [Example 24]: 11.1 nM.
As to `CC(=O)OCc1nc(C2(c3ccc(CN4[C@@H](C)CC[C@H](c5ccccc5)S4(=O)=O)c(F)c3)CCOCC2)no1` [Example 27, [3-[4-[3-fluoro-4-[[(3S,6R)-3-methyl-1,1-dioxo-6-phenyl-thiazinan-2-yl]methyl]phenyl]tetrahydropyran-4-yl]-1,2,4-oxadiazol-5-yl]methyl acetate], the IC50 was 109 nM.
For `C[C@H]1CC[C@H](c2ccccc2)S(=O)(=O)N1Cc1ccc(C2(c3noc(CN(C)C)n3)CCOCC2)cc1F` [Example 28, 1-[3-[4-[3-fluoro-4-[[(3S,6R)-3-methyl-1,1-dioxo-6-phenyl-thiazinan-2-yl]methyl]phenyl]tetrahydropyran-4-yl]-1,2,4-oxadiazol-5-yl]-N,N-dimethyl-methanamine] the value was 465 nM; for `C[C@H]1CC[C@H](c2ccccc2)S(=O)(=O)N1Cc1ccc(C2(c3noc(CO)n3)CCOCC2)cc1F` [Example 29, [3-[4-[3-fluoro-4-[[(3S,6R)-3-methyl-1,1-dioxo-6-phenyl-thiazinan-2-yl]methyl]phenyl]tetrahydropyran-4-yl]-1,2,4-oxadiazol-5-yl]methanol], 63.6 nM; for `C[C@H]1CC[C@H](c2ccccc2)S(=O)(=O)N1Cc1ccc(C2(c3noc(=O)[nH]3)CCOCC2)cc1F` [Example 30, 3-[4-[3-fluoro-4-[[(3S,6R)-3-methyl-1,1-dioxo-6-phenyl-thiazinan-2-yl]methyl]phenyl]tetrahydropyran-4-yl]-4H-1,2,4-oxadiazol-5-one], 245 nM.
The molecule `C[C@H]1CC[C@H](c2ccccc2)S(=O)(=O)N1Cc1cc(F)c(C2(C(=O)N3CC[C@@H](O)C3)CCOCC2)cc1F` [Example 32, [4-[2,5-difluoro-4-[[(3S,6R)-3-methyl-1,1-dioxo-6-phenyl-thiazinan-2-yl]methyl]phenyl]tetrahydropyran-4-yl]-[(3R)-3-hydroxypyrrolidin-1-yl]methanone] showed a concentration for half-maximal inhibition (IC50) of 79 nM.
Turning to `C[C@H]1CC[C@H](c2ccccc2)S(=O)(=O)N1Cc1cc(F)c(C2(C(=O)NCc3ccnn3C)CCOCC2)cc1F` [Example 33, 4-[2,5-difluoro-4-[[(3S,6R)-3-methyl-1,1-dioxo-6-phenyl-thiazinan-2-yl]methyl]phenyl]-N-[(2-methylpyrazol-3-yl)methyl]tetrahydropyran-4-carboxamide], the IC50 was found to be 23.4 nM.
In turn, `C[C@H]1CC[C@H](c2ccccc2)S(=O)(=O)N1Cc1cc(F)c(C2(C(=O)N3CC[C@H](O)C3)CCOCC2)cc1F` [Example 34, [4-[2,5-difluoro-4-[[(3S,6R)-3-methyl-1,1-dioxo-6-phenyl-thiazinan-2-yl]methyl]phenyl]tetrahydropyran-4-yl]-[(3S)-3-hydroxypyrrolidin-1-yl]methanone] displayed an IC50 of 98.5 nM.
Take `C[C@H]1CC[C@H](c2ccccc2)S(=O)(=O)N1Cc1cc(F)c(C2(C(=O)n3ccc(N)n3)CCOCC2)cc1F` [Example 35, (3-aminopyrazol-1-yl)-[4-[2,5-difluoro-4-[[(3S,6R)-3-methyl-1,1-dioxo-6-phenyl-thiazinan-2-yl]methyl]phenyl]tetrahydropyran-4-yl]methanone]: the IC50 is 10 nM.

For the origin of these results see US10259808B2 (Genentech, Inc., priority 2015, dated 2019).
